In patent publication US20220160659A1, “PHARMACEUTICAL COMPOSITION COMPRISING a-GALACTOSYLCERAMIDE AND/OR DENDRITIC CELLS PULSED WITH a-GALACTOSYLCERAMIDE” (National University Corporation Hokkaido University, priority 2019, published 2022):

Assays:
[1] = tested on: pediatric cancer patient having drug-induced myocardial dysfunction caused by an anthracycline anticancer drug; details: cited from earlier work
[2] = tested on: myocardial dysfunction model mice induced by doxorubicin; experiment: Echocardiography (left ventricular fractional shortening) after α-GalCer in doxorubicin myocardial dysfunction model; type: in vivo, C57BL/6 mice; details: α-GalCer 0.1 μg/g i.p. 4 days before and 3 days after doxorubicin 20 mg/kg i.p.; echocardiography 14 days after DOX; vs DOX group; FIG. 2
Method: (§1) Eight-week-old male C57BL/6 mice were divided into three groups (Control group, DOX group, and DOX+α-GC group). α-GalCer (KRN7000 (Funakoshi Co., Ltd.); 0.1 μg/g weight) was intraperitoneally administered to the DOX+α-GC group, while PBS was intraperitoneally administered to the Control group and the DOX group. Four days after the administration, doxorubicin (Doxorubicin hydrochloride, D1515 (SIGMA-ALDRICH); 20 mg/kg weight) was intraperitoneally administered to the DOX group and the DOX+α-GC group, while Vehicle (PBS) was intraperitoneally administered to the Control group. Three days after the administration of DOX or PBS, α-GalCer (0.1 μg/g weight) was intraperitoneally administered to the DOX+α-GC group, while PBS was intraperitoneally administered to the Control group and the DOX group. Fourteen days after the administration of DOX or PBS, echocardiography was performed for mice of each of the groups to evaluate their cardiac functions, and subsequently, the hearts of the mice were collected to perform pathological evaluation of myocardial tissue fibrosis and evaluation of inflammatory cytokine expression by using a quantitative real-time RT-PCR method. FIG. 1 illustrates the test schedules.
The echocardiography was carried out by using an ultrasound recording device EUB-8000 (Hitachi, Ltd.) under anesthesia with pentobarbital. […]

[3] = tested on: myocardial dysfunction model mice induced by doxorubicin; experiment: Myocardial tissue fibrosis, Picro-sirius Red staining, after α-GalCer; type: in vivo, C57BL/6 mice; details: α-GalCer 0.1 μg/g i.p. before and after doxorubicin 20 mg/kg; heart collected 14 days after DOX; vs DOX group; FIG. 3
Method: as §1, with “Three days after the administration of DOX or PBS, α-GalCer (0.1 μg/g weight) was intraperitoneally administered to the DOX+α-GC group, while PBS was intraperitoneally administered to the Control group and the DOX group.” left out, “FIG. 1 illustrates the test schedules.” left out
Myocardial tissue fibrosis was evaluated by fixing a frozen section sample of myocardial tissue with 10% formalin and then staining the sample with 3% Picro-sirius Red (100 ml of Van Gieson Solution P (FUJIFILM Wako Pure Chemical Corporation)+3 ml of 1% Sirius Red (MUTO PURE CHEMICALS CO., LTD.)) to detect collagen. […]

[4] = tested on: inflammatory cytokine expression in myocardial tissues; experiment: Inflammatory cytokine gene expression in myocardial tissue, quantitative real-time RT-PCR; type: in vivo, C57BL/6 mice; details: 14 days after DOX
Method: as §1
Furthermore, total RNA was extracted from myocardial tissues using QuickGene-810 (FUJIFILM Corporation), and subjected to a reverse transcription reaction using a cDNA reverse transcription kit (Applied Biosystems) to prepare cDNA. Using this cDNA as a template, a quantitative real-time RT-PCR was performed by the TaqMan method to evaluate the expression of inflammatory cytokine. Primer sets and probes used (all of them from Applied Biosystems) were as follows. GAPDH was used as an endogenous control. • IFN-γ: TaqMan Gene Expression Assays, Mm01168134 ml • TNF-α: TaqMan Gene Expression Assays, Mm00443258 ml • IL-1β: TaqMan Gene Expression Assays, Mm00434228 ml • TGF-β1: TaqMan Gene Expression Assays, Mm01178820 ml • IL-4: TaqMan Gene Expression Assays, Mm00445259 ml • IL-10: TaqMan Gene Expression Assays, Mm01288386 ml • GAPDH: Mouse GAPD (20X), Probe dye VIC-MGB

[5] = tested on: activated, M1 and M2 macrophage markers in myocardial tissues; experiment: Macrophage marker gene expression in myocardial tissue, quantitative real-time RT-PCR; type: in vivo, C57BL/6 mice; details: 14 days after DOX, FIG. 6
Method: Eight-week-old male C57BL/6 mice were divided into three groups (Control group, DOX group, and DOX+α-GC group). α-GalCer (KRN7000 (Funakoshi Co., Ltd.); 0.1 μg/g weight) was intraperitoneally administered to the DOX+α-GC group, while PBS was intraperitoneally administered to the Control group and the DOX group. Four days after the administration, doxorubicin (Doxorubicin hydrochloride, D1515 (SIGMA-ALDRICH); 20 mg/kg weight) was intraperitoneally administered to the DOX group and the DOX+α-GC group, while Vehicle (PBS) was intraperitoneally administered to the Control group. Three days after the administration of DOX or PBS, α-GalCer (0.1 μg/g weight) was intraperitoneally administered to the DOX+α-GC group, while PBS was intraperitoneally administered to the Control group and the DOX group. Fourteen days after the administration of DOX or PBS, echocardiography was performed for mice of each of the groups to evaluate their cardiac functions, and subsequently, the hearts of the mice were collected to perform pathological evaluation of myocardial tissue fibrosis and evaluation of inflammatory cytokine expression by using a quantitative real-time RT-PCR method. FIG. 1 illustrates the test schedules. Furthermore, using the above-mentioned cDNA as a template, a quantitative real-time RT-PCR was performed by the TaqMan method using the following primer sets and probes (all of them from Applied Biosystems) to evaluate the expression of CD11c and MHC II (activated macrophage markers), MCP-1, iNOS, and IL-1β (M1 macrophage markers), and […] and Arginase 1 (Arg1) (M2 macrophage markers). GAPDH was used as an endogenous control. • CD11c: TaqMan Gene Expression Assays, Mm00498701 ml • MHC II (H2-A1): TaqMan Gene Expression Assays, Mm00439211 ml • MCP1 (CCL2): TaqMan Gene Expression Assays, Mm00441242 ml • iNOS (NOS2): TaqMan Gene Expression Assays, Mm00440502 ml • IL-1β: TaqMan Gene Expression Assays, Mm00434228 ml • […]: TaqMan Gene Expression Assays, Mm00445109 ml • Arg1: TaqMan Gene Expression Assays, Mm00475988 ml • GAPDH: Mouse GAPD (20X), Probe dye VIC-MGB

[6] = tested on: post-myocardial infarction heart failure; details: ischemic heart failure; earlier work of the inventors; cited from earlier work
[7] = tested on: early breast cancer patient treated with an anthracycline anticancer drug; details: cited from earlier work
[8] = comparison between the three groups

CCOC(=O)[C@H](CCc1ccccc1)N[C@@H](C)C(=O)N1CCC[C@H]1C(=O)O [enalapril]
left ventricular end-systolic wall stress [1]: reduced a left ventricular end-systolic wall stress | other important parameters reflecting a motor ability and the like [1]: failed to improve other important parameters reflecting a motor ability and the like

CCCCCCCCCCCCCCCCCCCCCCCCCC(=O)N[C@@H](CO[C@H]1O[C@H](CO)[C@H](O)[C@H](O)[C@H]1O)[C@H](O)[C@H](O)CCCCCCCCCCCCCC [α-GalCer, α-galactosylceramide]
cardiac function, left ventricular fractional shortening (% FS) [2]: did not show the decrease in cardiac function as observed in the DOX group | myocardial tissue fibrosis (ratio of stained area) [3]: the progression as observed in the DOX group was significantly suppressed | expression of IFN-γ in myocardial tissue ([4]; DOX+α-GC group vs Control and DOX groups, FIG. 5): tended to be more enhanced in the DOX+α-GC group than in other groups | expression of interleukin-4 (IL-4) in myocardial tissue ([4]; DOX+α-GC group vs Control and DOX groups, GAPDH endogenous control, FIG. 4, FIG. 5): tended to be more enhanced in the DOX+α-GC group than in other groups | expression of other cytokines such as IL-10 in myocardial tissue ([4]; comparison between Control, DOX and DOX+α-GC groups, FIG. 5): any significant difference in the expression of other cytokines such as IL-10 between the three groups was not observed | expression of Arg1 (M2 macrophage marker) in myocardial tissue ([5]; DOX+α-GC group vs other groups): more enhanced in the DOX+α-GC group than in other groups | expression of CD11c (activated macrophage marker) in myocardial tissue ([5]; DOX+α-GC group vs other groups): more enhanced in the DOX+α-GC group than in other groups | expression of MHC II (activated macrophage marker) in myocardial tissue ([5]; DOX+α-GC group vs other groups): more enhanced in the DOX+α-GC group than in other groups | expression of Retnla (M2 macrophage marker) in myocardial tissue ([5]; DOX+α-GC group vs other groups): more enhanced in the DOX+α-GC group than in other groups | expression of IL-1β (M1 macrophage marker) in myocardial tissue [5, 8]: any significant difference in the expression of MCP-1, iNOS, and IL-1β as M1 macrophage markers between the three groups was not observed | expression of MCP-1 (M1 macrophage marker) in myocardial tissue [5, 8]: any significant difference in the expression of MCP-1, iNOS, and IL-1β as M1 macrophage markers between the three groups was not observed | expression of iNOS (M1 macrophage marker) in myocardial tissue [5, 8]: any significant difference in the expression of MCP-1, iNOS, and IL-1β as M1 macrophage markers between the three groups was not observed | therapeutic effect on post-myocardial infarction heart failure [6]: confirmed therapeutic effects

COCCc1ccc(OCC(O)CNC(C)C)cc1 (stereo not shown) [metoprolol]
decrease in left ventricular ejection fraction [7]: did not prevent the decrease in left ventricular ejection fraction
